Patent US20220047617A1, “Nucleic acid nanocarrier drug, preparation method, pharmaceutical composition and use thereof” (BAI YAO ZHI DA (BEIJING) NANOBIO TECHNOLOGY CO., LTD., priority 2018, published 2022)

Columns and labels:
SKOV3 cells = test: Cytotoxicity in SKOV3 cells (CellTiter 96 AQueous One Solution), Embodiment 9; type: cell-based; conditions: Homo sapiens, SK-OV-3; SKOV3, 96 hours
Experimental: 2) adjusting the cell density to 2.22×10^4/mL with a growth medium;
3) planting 90 μL/well of cell suspension into the 96-well plate, herein the number of cells per well in the plate is 2000;
4) placing the planted cell plate in the incubator at 37 DEG C. and incubating overnight;
5) performing 3.16-fold gradient dilution on the compound at 9 concentration points;
7) placing the cell culture plate in the incubator and continuously incubating for 96 hours;
8) placing the CellTiter 96® AQueous One Solution reagent at the room temperature and thawing for 90 minutes or thawing in a water bath at 37 DEG C., and placing at the room temperature and equilibrating for 30 minutes;
9) adding 20 μL/well of the CellTiter 96® AQueous One Solution reagent to the cell culture plate;
10) placing the cell culture plate in the incubator at 37 DEG C. and continuously incubating for 3 hours;
11) using a microplate reader to read a OD490 value of each well in the cell plate; and 12) data processing and analysis.
GraphPad Prism 5.0 software is used to process data graphically. In order to calculate the IC50, “S”-shaped nonlinear regression analysis is performed on the data to match an appropriate dosage-effect curve. A calculation formula of the survival rate is as follows, the IC50 may be automatically calculated in GraphPad Prism 5.0. […]

U87MG cells = test: Cytotoxicity in U87MG cells (CellTiter-Glo), Embodiment 8; type: cell-based
Experimental: Cytotoxicity Research of RNAh-Bio-670-Paclitaxel Nanoparticles in U87MG Cells
1) Cell Culturing and Plating
U87MG cells are cultured at 37 DEG C. and 5% CO2 in the EMEM basal medium in which 10% FBS and 1% PS are respectively added. The cell density used in the experiment is above 80%. The cells are collected, and centrifuged at 1000 rpm for 4 minutes, the medium is resuspended, the cell concentration is adjusted, and it is added to the 96-well plate in a volume of 5000 cells per 90 μL, and each group has 4 replicate wells.
2) Gradient Drug Concentration Preparation and Administration […]
Medium (untreated) control: only cells without compound treatment
Blank control: without cells, used for instrument zero calibration
3) Cell Culture after Administration
4) Cells Treated by Detection Kit
The well plate is brought to a room temperature in advance and stands for 30 minutes. 100 μL of a CellTiter-Glo® reagent is added to each well of the well plate and mixed for 2 minutes on a shaker to promote cell lysis. The Perkin Elmer Envision 2104 Multilabel Reader is used to read values and the values are recorded.
5) Experiment Data Acquisition and Processing
The acquired experiment data is analyzed and processed by using excel software, and GraphPad Prism 5 software is used for curve fitting analysis.

[1] = Particle size measurement (DLS hydrodynamic size); type: physicochemical
Source text: (3) Particle Size Measurement
1. Preparing a potential sample (conventional-sequence DNA self-assembly product D-7) and putting into a sample pool, opening a sample pool cover of an instrument, and placing the instrument;
2. opening software, and clicking a menu, so a manual measurement parameter setting dialog box appears;
3. setting a software detection parameter; and then
4. clicking Ok to complete the settings, when a measurement dialog box appears, clicking Start to start, a DLS measurement value result of a hydrodynamic size of the self-assembly product D-7 is shown below in Table 40:
(3) Particle size measurement
(2) opening software, and clicking a menu, so a manual measurement parameter setting dialog box appears;
(3) setting a software detection parameter; and then

[2] = TM value detection by solubility curve method (SYBR Green I); type: physicochemical; conditions: extension fragment deformation+core short-sequence RNA nanoparticles; temperature at ½ RFUmax in 20 to 90 DEG C. taken as Tm
Experimental: A solubility curve method is used to detect TM values of the 7 groups of the extension fragment deformation+core short-sequence RNA nanoparticles, and the samples are consistent with the potential samples.
(1) After the sample is diluted with ultrapure water, 5 μg of the diluted sample is mixed with 2 μL of SYBR Green I dye (diluted by 1:200), a final volume is 20 μL, and the dilution concentration is as follows:
(2) It is incubated for 30 min in the dark at a room temperature; and
(3) On-machine detection is performed, a program is set to start at 20 DEG C., the temperature rises per second from 0.1 DEG C. to 95 DEG C., and reading is performed every 5 s.
Due to the particularity of the RNA samples, a temperature corresponding to ½ RFUmax in a range of 20 to 90 DEG C. is used as a sample Tm value in this test.
A solubility curve method is used to detect TM values of the 7 groups of the extension fragment deformation+core short-sequence DNA nanoparticles, and the samples are consistent with the potential samples.

Molecule	IC50 (SKOV3 cells)	inhibition rates of the drugs to the cells (U87MG cells; drug concentration is 10 μM)	cell survival rate (%) (U87MG cells; treatment time 72 h, 200 nM of each sample per well (method))	Mean particle size (nm) [1]	TM value [2]
CC(=O)O[C@H]1C(=O)[C@@]2(C)[C@H]([C@H](OC(=O)c3ccccc3)[C@]3(O)C[C@H](OC(=O)[C@H](O)[C@@H](NC(=O)c4ccccc4)c4ccccc4)C(C)=C1C3(C)C)[C@]1(OC(C)=O)CO[C@@H]1C[C@@H]2O [Paclitaxel, paclitaxel]	< 1 nM	23.77%	56.74%		
R-20: extension fragment deformation+core short-sequence RNA nanoparticles, strands SEQ ID NO: 135-137, a-strand 3′-biotin, 2′F (nucleic acid, RNA nanoparticle strands, 2'-fluoro modified, a-strand 3'-biotin, positions not given here) chain 1: GCGGCGAGCGGCGACGAGCGUUGCGGCCGGAGGCCGG chain 2: CCGGCCUCCGGCCGCUUCGCCGCCAGCCGCC chain 3: GGCGGCAGGCGGCCAUAGCCGUCGCCGCUCGCCGC				7.110 nm	59.5 °C
